Columns and labels:
[1] = Storage stability test of salts of compound A (1-week preliminary stability test, content by HPLC); assay type: physicochemical; conditions: for decomposition / decrease in purity on storage (in words): 1-week preliminary stability test (severe test), light, humidity and other factors; for content of salt of compound A after storage, relative to the content before storage of 100%: HPLC
Protocol: For examining the storage stability for these salts with compound A, a 1-week preliminary stability test (severe test) was executed.
<Storage Stability Tests for Benzenesulfonate, Methanesulfonate and p-Toluenesulfonate of Compound A (1-Week Preliminary Stability Test)>
For benzenesulfonate, methanesulfonate and p-toluenesulfonate of compound A, after storing under the conditions of 40° C. 75% RH, 60° C. or light (1000 lux/hr), the content of each salt of compound A was measured by HPLC. The percentage of change, relative to the content before storage of 100%, was calculated.

[2] = tested on: Crl:CD (SD) rat; assay: Rat 4-week repeated oral administration toxicity test of benzenesulfonate of compound A, stomach histopathology; assay type: in vivo; conditions: once a day, 4 weeks, 30 mg/kg
Protocol: (§1) i) To Crl:CD (SD) rat was orally administered compound A ([…]) suspended in a 1% methylcellulose liquid once a day for 7 days. ii) After completion of the administration, the rat was exsanguinated to death under ether anesthesia, then the stomach was removed, fixed in a 10% neutral buffered formalin aqueous solution, and then stained with hematoxylin-eosin to prepare a specimen, and the change in the stomach was observed histopathologically. 2) Rat 4-week repeated oral administration toxicity test of benzenesulfonate of compound A
as §1, with “administered benzenesulfonate of” for “administered”, “4 weeks.” for “7 days.”, “histopathologically.” for “histopathologically. 2) Rat 4-week repeated oral administration toxicity test of benzenesulfonate of compound A”

[3] = tested on: Crl:CD (SD) rat; assay: Rat 1-week repeated oral administration toxicity test of compound A (free body), stomach histopathology; assay type: in vivo; conditions: once a day, 1 week (7 days), 30 mg/kg
Protocol: 1) Rat 1-week repeated oral administration toxicity test of compound A (free body)
as §1

[4] = tested on: VEGF-induced HUVEC proliferation; conditions: described in PTL 1; cited from earlier work
[5] = tested on: tumor-bearing mouse model; conditions: described in PTL 1; cited from earlier work
[6] = tested on: rat adjuvant arthritis model; conditions: described in PTL 1; cited from earlier work
[7] = tested on: rat choroidal neovascularization model; conditions: described in PTL 1; cited from earlier work

| Compound | decomposition / decrease in purity on storage (in words) [1] | content of salt of compound A after storage, relative to the content before storage of 100% ([1]; 40° C. 75% RH/1 week) [%] | content of salt of compound A after storage, relative to the content before storage of 100% ([1]; 60° C./1 week) [%] | content of salt of compound A after storage, relative to the content before storage of 100% ([1]; 1000 lux/hr, 1 week) [%] | mineral deposition in the stomach [2] | mineral deposition in the stomach [3] | cell proliferation inhibiting effect [4] | tumor proliferation suppressing effect [5] | paw edema suppressing effect [6] | choroidal neovascularization inhibiting effect [7] |
| --- | --- | --- | --- | --- | --- | --- | --- | --- | --- | --- |
| O=C(CO)Nc1cc(CSc2ncccc2C(=O)Nc2ccc(OC(F)(F)F)cc2)ccn1.O=S(=O)(O)c1ccccc1 [benzenesulfonate of compound A, benzenesulfonate of 2-[[[2-[(hydroxyacetyl)amino]-4-pyridinyl]methyl]thio]-N-[4-(trifluoromethoxy)phenyl]-3-pyridinecarboxamide] | did not show a decrease in purity | 100.0 | 100.0 | 100.0 | not observed |  |  |  |  |  |
| O=C(CO)Nc1cc(CSc2ncccc2C(=O)Nc2ccc(OC(F)(F)F)cc2)ccn1 [compound A, 2-[[[2-[(hydroxyacetyl)amino]-4-pyridinyl]methyl]thio]-N-[4-(trifluoromethoxy)phenyl]-3-pyridinecarboxamide] |  |  |  |  |  | observed | exhibits a cell proliferation inhibiting effect | exhibits a tumor proliferation suppressing effect | exhibits a paw edema suppressing effect | exhibits a choroidal neovascularization inhibiting effect |
| CS(=O)(=O)O.O=C(CO)Nc1cc(CSc2ncccc2C(=O)Nc2ccc(OC(F)(F)F)cc2)ccn1 [methanesulfonate of compound A] | decomposed by light | 99.8 | 99.9 | 99.1 |  |  |  |  |  |  |
| p-toluenesulfonate | decomposed by humidity | 92.3 | 99.3 | 99.8 |  |  |  |  |  |  |

— patent US20170081286A1, “2-[[[2-[(HYDROXYACETYL)AMINO]-4-PYRIDINYL]METHYL]THIO]-N-[4-(TRIFLUOROMETHOXY)PHENYL]-3-PYRIDINECARBOXAMIDE BENZENESULFONATE, CRYSTAL OF SAME, CRYSTAL POLYMORPH THEREOF, AND METHODS FOR PRODUCTION THEREOF” (Santen Pharmaceutical Co., Ltd., priority 2009, published 2017)
